Source: US6737383B1, “Herbicidal oxadiazolidines” (priority 1999, dated 2004)

Tests used:
[1] = test system: Spanishneedles; experiment: Test D Spanishneedles; type: in vivo, Bidens bipinnata; conditions: Postemergence, 0 to 100 scale
[2] = test system: Green foxtail; experiment: Test D green foxtail; type: in vivo; conditions: Postemergence, 0 to 100 scale, 0 no injury, 100 complete control
[3] = test system: Green foxtail; experiment: Test D green foxtail; type: in vivo; conditions: Postemergence, 0 to 100 scale, 0 no injury, 100 complete control; remark: listed apart in the source
[4] = test system: guineagrass; experiment: Test D guineagrass; type: in vivo, Panicum maximum; conditions: Postemergence, 0 to 100 scale
[5] = test system: itchgrass; experiment: Test D itchgrass; type: in vivo, Rottboellia exaltata; conditions: Postemergence, 0 to 100 scale
[6] = test system: pitted morningglory; experiment: Test D pitted morningglory; type: in vivo, Ipomoea lacunosa; conditions: Postemergence, 0 to 100 scale
[7] = test system: sandbur; experiment: Test D sandbur; type: in vivo, Cenchrus echinatus; conditions: Postemergence, 0 to 100 scale
[8] = test system: bermuda-grass; experiment: Test D bermudagrass; type: in vivo, Cynodon dactylon; conditions: Postemergence, 0 to 100 scale
[9] = test system: common groundsel; experiment: Test D common groundsel; type: in vivo, Senecio vulgaris; conditions: Postemergence, 0 to 100 scale
[10] = test system: Green foxtail; experiment: Test D green foxtail; type: in vivo; conditions: Postemergence, 0 to 100 scale, 0 no injury, 100 complete control; remark: listed apart in the source
[11] = test system: Johnson grass; experiment: Test D Johnson grass; type: in vivo, Sorghum halepense; conditions: Postemergence, 0 to 100 scale
[12] = test system: dallisgrass; experiment: Test D dallisgrass; type: in vivo, Paspalum dilatatum; conditions: Postemergence, 0 to 100 scale
[13] = test system: common pursiane; experiment: Test D common purslane; type: in vivo, Portulaca oleracea; conditions: Postemergence, 0 to 100 scale
[14] = test system: Alexandergrass; experiment: Test D Alexandergrass; type: in vivo, Brachiaria plantaginea; conditions: Postemergence, 0 to 100 scale
[15] = test system: surinam grass; experiment: Test D surinam grass; type: in vivo, Brachiaria decumbens; conditions: Postemergence, 0 to 100 scale
[16] = Rate 16 g/ha, 0 no injury, 100 complete control
[17] = Rate 32 g/ha, 0 no injury, 100 complete control
[18] = Rate 64 g/ha, 0 no injury, 100 complete control
[19] = Rate 125 g/ha, 0 no injury, 100 complete control

Q: `COCC(C)n1c(=O)on(C(=O)N(c2ccc(F)cc2F)C(C)C)c1=O` (stereo not drawn) [Compound 352] was tested. Which “Plant response rating, Spanishneedles” value [1, 16] did it give?
A: The value was 0.

Q: And the “Plant response rating, Spanishneedles” value [1, 17]?
A: The value was 0.

Q: And the “Spanishneedles plant response rating” value [1, 18]?
A: Its value is 0.

Q: And the “Spanishneedles plant response rating” value [1, 19]?
A: The value was 40.

Q: What about the “Plant response rating, Spanishneedles” value ([1]; Rate 250 g/ha) of the same molecule?
A: The value was 30.

Q: And the “Plant response rating, Green foxtail” value ([2]; Rate 16 g/ha)?
A: The value was 0.

Q: And the “Plant response rating, Green foxtail” value ([2]; Rate 32 g/ha)?
A: Its value is 100.

Q: And the “Green foxtail plant response rating” value ([3]; Rate 64 g/ha)?
A: Its value is 100.

Q: What about the “Green foxtail plant response rating” value ([3]; Rate 125 g/ha) of the same molecule?
A: Its value is 100.

Q: What about the “Plant response rating, Guineagrass” value [4, 16] of the same molecule?
A: The value was 0.

Q: What about the “Plant response rating, Guineagrass” value [4, 17] of the same molecule?
A: The value was 0.

Q: And the “Guineagrass plant response rating” value [4, 18]?
A: Its value is 20.

Q: And the “Plant response rating, Guineagrass” value [4, 18]?
A: Its value is 60.

Q: What about the “Plant response rating, Guineagrass” value [4, 19] of the same molecule?
A: The value was 80.

Q: And the “Plant response rating, Guineagrass” value ([4]; Rate 250 g/ha)?
A: The value was 100.

Q: And the “Plant response rating, Itchgrass” value [5, 16]?
A: The value was 0.

Q: And the “Plant response rating, Itchgrass” value [5, 17]?
A: The value was 0.

Q: And the “Plant response rating, Itchgrass” value [5, 18]?
A: The value was 0.

Q: And the “Plant response rating, Itchgrass” value [5, 19]?
A: Its value is 20.

Q: And the “Plant response rating, Itchgrass” value ([5]; Rate 250 g/ha)?
A: The value was 60.

Q: What about the “Plant response rating, P. morninglory” value [6, 16] of the same molecule?
A: Its value is 0.

Q: What about the “Plant response rating, P. morninglory” value [6, 17] of the same molecule?
A: Its value is 0.

Q: And the “Plant response rating, P. morninglory” value [6, 18]?
A: Its value is 0.

Q: What about the “Plant response rating, P. morninglory” value [6, 19] of the same molecule?
A: Its value is 0.

Q: What about the “Plant response rating, P. morninglory” value ([6]; Rate 250 g/ha) of the same molecule?
A: The value was 0.

Q: What about the “Plant response rating, Sandbur” value [7, 16] of the same molecule?
A: The value was 0.

Q: What about the “Plant response rating, Sandbur” value [7, 17] of the same molecule?
A: The value was 90.

Q: What about the “Sandbur plant response rating” value [7, 18] of the same molecule?
A: The value was 70.

Q: What about the “Sandbur plant response rating” value [7, 19] of the same molecule?
A: Its value is 100.

Q: What about the “Plant response rating, Sandbur” value ([7]; Rate 250 g/ha) of the same molecule?
A: Its value is 100.

Q: And the “Plant response rating, Bermudagrass” value [8, 16]?
A: The value was 0.

Q: And the “Plant response rating, Bermudagrass” value [8, 17]?
A: Its value is 80.

Q: What about the “Plant response rating, Bermudagrass” value [8, 18] of the same molecule?
A: The value was 100.

Q: What about the “Plant response rating, Bermudagrass” value [8, 19] of the same molecule?
A: Its value is 100.

Q: And the “Plant response rating, Bermudagrass” value ([8]; Rate 250 g/ha)?
A: The value was 100.

Q: And the “Plant response rating, Com. groundsel” value [9, 17]?
A: Its value is 0.

Q: What about the “Plant response rating, Com. groundsel” value [9, 18] of the same molecule?
A: Its value is 50.

Q: What about the “Plant response rating, Com. groundsel” value [9, 19] of the same molecule?
A: The value was 100.

Q: And the “Plant response rating, Com. groundsel” value ([9]; Rate 250 g/ha)?
A: Its value is 100.

Q: And the “Plant response rating, Green foxtail” value ([10]; Rate 64 g/ha)?
A: The value was 100.

Q: And the “Plant response rating, Green foxtail” value ([10]; Rate 125 g/ha)?
A: The value was 100.

Q: And the “Plant response rating Johnsongrass” value [11, 16]?
A: Its value is 0.

Q: And the “Plant response rating Johnsongrass” value [11, 17]?
A: Its value is 0.

Q: What about the “Plant response rating Johnsongrass” value [11, 18] of the same molecule?
A: Its value is 0.

Q: And the “Plant response rating Johnsongrass” value [11, 19]?
A: The value was 40.

Q: What about the “Plant response rating Johnsongrass” value ([11]; Rate 250 g/ha) of the same molecule?
A: Its value is 80.

Q: And the “Plant response rating, Dallisgrass” value [12, 16]?
A: The value was 0.

Q: And the “Plant response rating, Dallisgrass” value [12, 17]?
A: The value was 70.

Q: What about the “Plant response rating, Dallisgrass” value [12, 18] of the same molecule?
A: Its value is 80.

Q: What about the “Plant response rating, Dallisgrass” value [12, 19] of the same molecule?
A: The value was 100.

Q: And the “Plant response rating, Dallisgrass” value ([12]; Rate 250 g/ha)?
A: Its value is 100.

Q: And the “Plant response rating, C. purslane” value [13, 16]?
A: Its value is 0.

Q: What about the “Plant response rating, C. purslane” value [13, 17] of the same molecule?
A: Its value is 0.

Q: What about the “Plant response rating, C. purslane” value [13, 18] of the same molecule?
A: Its value is 0.

Q: And the “Plant response rating, C. purslane” value [13, 19]?
A: Its value is 0.

Q: What about the “Plant response rating, C. purslane” value ([13]; Rate 250 g/ha) of the same molecule?
A: Its value is 0.

Q: And the “Plant response rating, Alexandergrass” value [14, 16]?
A: The value was 0.

Q: And the “Plant response rating, Alexandergrass” value [14, 17]?
A: The value was 60.

Q: What about the “Plant response rating, Alexandergrass” value [14, 18] of the same molecule?
A: Its value is 80.

Q: And the “Plant response rating, Alexandergrass” value [14, 19]?
A: The value was 100.

Q: What about the “Plant response rating, Alexandergrass” value ([14]; Rate 250 g/ha) of the same molecule?
A: Its value is 100.

Q: And the “Plant response rating, Surinam grass” value [15, 16]?
A: The value was 0.

Q: What about the “Plant response rating, Surinam grass” value [15, 17] of the same molecule?
A: Its value is 0.

Q: And the “Surinam grass plant response rating” value [15, 18]?
A: Its value is 30.

Q: What about the “Surinam grass plant response rating” value [15, 19] of the same molecule?
A: The value was 70.

Q: What about the “Plant response rating, Surinam grass” value ([15]; Rate 250 g/ha) of the same molecule?
A: The value was 100.

Q: Which results are given for `CC(C)N(C(=O)n1oc(=O)n(C2(C)CC2)c1=O)c1ccccc1` [Compound 360]?
A: Plant response rating, Spanishneedles [1, 16]: 0; Spanishneedles plant response rating [1, 18]: 0; Spanishneedles plant response rating [1, 19]: 0; Plant response rating, Spanishneedles ([1]; Rate 250 g/ha): 20; Plant response rating, Green foxtail ([2]; Rate 16 g/ha): 0; Plant response rating, Green foxtail ([2]; Rate 32 g/ha): 70; Green foxtail plant response rating ([3]; Rate 64 g/ha): 100; Green foxtail plant response rating ([3]; Rate 125 g/ha): 100; Plant response rating, Guineagrass [4, 16]: 0; Plant response rating, Guineagrass [4, 17]: 100; Guineagrass plant response rating [4, 18]: 100; Plant response rating, Guineagrass [4, 19]: 100; Plant response rating, Guineagrass ([4]; Rate 250 g/ha): 100; Plant response rating, Itchgrass [5, 16]: 0; Plant response rating, Itchgrass [5, 17]: 0; Plant response rating, Itchgrass [5, 18]: 0; Plant response rating, Itchgrass [5, 19]: 20; Plant response rating, Itchgrass ([5]; Rate 250 g/ha): 30; Plant response rating, P. morninglory [6, 16]: 0; Plant response rating, P. morninglory [6, 17]: 0; Plant response rating, P. morninglory [6, 18]: 0; Plant response rating, P. morninglory [6, 19]: 0; Plant response rating, P. morninglory ([6]; Rate 250 g/ha): 10; Plant response rating, Sandbur [7, 16]: 0; Plant response rating, Sandbur [7, 17]: 90; Sandbur plant response rating [7, 18]: 50; Sandbur plant response rating [7, 19]: 100; Plant response rating, Sandbur ([7]; Rate 250 g/ha): 100; Plant response rating, Bermudagrass [8, 16]: 0; Plant response rating, Bermudagrass [8, 17]: 100; Plant response rating, Bermudagrass [8, 18]: 100; Plant response rating, Bermudagrass [8, 19]: 100; Plant response rating, Bermudagrass ([8]; Rate 250 g/ha): 100; Plant response rating, Com. groundsel [9, 18]: 0; Plant response rating, Com. groundsel [9, 19]: 100; Plant response rating, Com. groundsel ([9]; Rate 250 g/ha): 100; Plant response rating, Green foxtail ([10]; Rate 64 g/ha): 100; Plant response rating, Green foxtail ([10]; Rate 125 g/ha): 100; Plant response rating Johnsongrass [11, 16]: 0; Plant response rating Johnsongrass [11, 17]: 0; Plant response rating Johnsongrass [11, 18]: 0; Plant response rating Johnsongrass [11, 19]: 50; Plant response rating Johnsongrass ([11]; Rate 250 g/ha): 70; Plant response rating, Dallisgrass [12, 16]: 0; Plant response rating, Dallisgrass [12, 17]: 40; Plant response rating, Dallisgrass [12, 18]: 100; Plant response rating, Dallisgrass [12, 19]: 100; Plant response rating, Dallisgrass ([12]; Rate 250 g/ha): 100; Plant response rating, C. purslane [13, 16]: 0; Plant response rating, C. purslane [13, 17]: 0; Plant response rating, C. purslane [13, 18]: 0; Plant response rating, C. purslane [13, 19]: 0; Plant response rating, C. purslane ([13]; Rate 250 g/ha): 0; Plant response rating, Alexandergrass [14, 16]: 20; Plant response rating, Alexandergrass [14, 17]: 60; Plant response rating, Alexandergrass [14, 18]: 50; Plant response rating, Alexandergrass [14, 19]: 100; Plant response rating, Alexandergrass ([14]; Rate 250 g/ha): 100; Plant response rating, Surinam grass [15, 16]: 0; Plant response rating, Surinam grass [15, 17]: 0; Surinam grass plant response rating [15, 18]: 100; Surinam grass plant response rating [15, 19]: 90; Plant response rating, Surinam grass ([15]; Rate 250 g/ha): 100
